Columns and labels:
human GST-CLK1 (129-end) = target: T1, human GST-CLK1 (129-end) (Homo sapiens, UniProt P49759); assay: GST-CLK1 enzyme inhibition, ADP-Glo kinase assay; assay type: biochemical; settings: ATP 10 uM
T1 construct: purified human GST-CLK1 (129-end, Signalchem) enzyme; GST; purchased Signalchem
Procedure, shortened: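 GST-CLK1 (129-end, 3 ng) reacted with 10 uM ATP and substrate in 40 mM Tris-HCl pH 7.4, 20 mM MgCl2, 0.5 mg/mL BSA, 50 uM DTT, 1 h at 25° C. ADP-Glo luminescence normalised to solvent control; IC50 from triplicate data.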

[1] = target: T2, LRRK2, LRRK2 (G2019S), DYRK1, CLK1 and TTK kinases (Homo sapiens, UniProt Q13627); assay: Enzyme IC50 by Kinase HotSpot service (Reaction Biology Corporation), values marked with *; assay type: biochemical; settings: DYRK1, ATP 10 uM
T2 construct: other: DYRK1; Kinase HotSpot service (Reaction Biology), ATP 10 uM
Experimental: (§1) Meanwhile, the enzyme IC50 measurement for some compounds was performed using Kinase HotSpot service (Reaction Biology Corporation); during the test, the ATP concentration was 10 uM, where all were conducted under the same condition; and the concentration of the compound was measured by giving a 3-fold concentration gradient with the highest concentration of […], where the values measured using Kinase HotSpot service (Reaction Biology Corporation) were marked with “*”.
(§2) All experimental methods were performed as provided in Kinase HotSpot Customer Protocol (http://www.reactionbiology.com//Kinase_Assay_Protocol).
(§3) In the table below, the following designations were used for the evaluation of enzyme inhibitory ability.

MDA-MB-231 cell line = assay: MDA-MB-231 cancer cell proliferation inhibition (Cell Titer-Glo); assay type: cell-based; settings: Homo sapiens, MDA-MB-231 triple-negative breast cancer cell line, 72 hours
Procedure, shortened: (§4)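 GI50 comes from CellTiter-Glo luminescence, read 10 min after reagent addition at RT, following 72 h compound treatment. Eleven concentrations were used (⅓ steps, highest 10 μM final) on 2000 cells/well. MDA-MB-231 and MDA-MB-468 were grown in DMEM, SHP-77 in RPMI.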

human DYRK1A and Tau = assay: Tau phosphorylation inhibition, ClariCELL Kinase Cell-Based Assay (Carnabio)
Procedure, shortened: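 HEK293 cells transiently expressing human DYRK1A and Tau were exposed to compound, then lysed. Released Tau was captured on plate and its phosphorylation quantified by ELISA with a phospho-Tau-specific antibody.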

LRRK2 = LRRK2 (Homo sapiens, UniProt Q5S007); assay: LRRK2 enzyme inhibition, ADP-Glo kinase assay; assay type: biochemical; parameters: purchased Invitrogen PR8604B
Procedure, shortened: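 Purified human LRRK2 (25 ng) in 40 mM Tris-HCl pH7.4, 20 mM MgCl2, 0.5 mg/ml BSA, 50 μM DTT with 10 μM ATP and substrate ([…]), 2 h at 25° C. Final compound 50 to 0.000001024 μM, 12-point dilution. ADP-Glo luminescence vs solvent control; IC50 (nM).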

TTK = target: T3, TTK (Homo sapiens, UniProt P33981); assay: TTK enzyme inhibition, ADP-Glo kinase assay; assay type: biochemical; parameters: purchased Signalchem T20-10G; settings: ATP 5 μM
T3 sequence (P33981 1-857): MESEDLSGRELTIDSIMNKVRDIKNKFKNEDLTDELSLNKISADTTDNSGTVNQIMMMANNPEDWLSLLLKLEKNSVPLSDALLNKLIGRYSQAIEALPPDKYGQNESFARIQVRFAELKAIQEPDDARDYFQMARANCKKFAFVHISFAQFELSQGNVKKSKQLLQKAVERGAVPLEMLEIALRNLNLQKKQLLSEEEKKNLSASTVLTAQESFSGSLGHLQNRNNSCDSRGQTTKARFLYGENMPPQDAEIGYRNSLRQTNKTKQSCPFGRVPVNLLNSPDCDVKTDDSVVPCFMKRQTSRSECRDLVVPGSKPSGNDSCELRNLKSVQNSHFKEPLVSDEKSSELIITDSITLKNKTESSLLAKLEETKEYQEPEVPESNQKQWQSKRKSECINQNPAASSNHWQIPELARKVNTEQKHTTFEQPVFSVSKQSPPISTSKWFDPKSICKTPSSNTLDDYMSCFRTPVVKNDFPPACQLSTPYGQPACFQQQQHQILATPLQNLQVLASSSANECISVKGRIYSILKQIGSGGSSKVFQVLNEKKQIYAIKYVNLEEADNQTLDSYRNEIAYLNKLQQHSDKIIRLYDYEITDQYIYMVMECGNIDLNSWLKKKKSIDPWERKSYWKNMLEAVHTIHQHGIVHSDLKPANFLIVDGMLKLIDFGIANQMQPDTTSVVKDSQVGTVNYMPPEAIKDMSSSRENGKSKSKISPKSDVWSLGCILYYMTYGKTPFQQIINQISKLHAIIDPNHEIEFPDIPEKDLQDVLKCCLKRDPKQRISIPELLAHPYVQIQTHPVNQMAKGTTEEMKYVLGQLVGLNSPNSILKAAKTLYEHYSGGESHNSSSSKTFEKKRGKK
Experimental: In order to evaluate the inhibitory activity of the compounds according to the present invention on LRRK2, LRRK2 (G2019S), DYRK1, CLK1 and TTK kinases, the following experiment was performed.
Example compounds were reacted with the purified human TTK (Signalchem #T20-10G) enzyme to evaluate the enzyme inhibitory ability as follows. The reaction buffer was used as the composition of 40 mM Tris-HCl pH7.4, 20 mM MgCl2, 0.1 mg/ml BSA (5× kinase buffer, Signalchem #K03-09) and 50 μM DTT (Signalchem #D86-09B), and the reaction of all test materials was performed on the reaction buffer. The compound was diluted with 10 mM DMSO stock in […] by a serial dilution method, and the enzyme activity was measured at the final compound concentrations of 1, 0.333333, 0.111111, 0.037037, 0.012346, 0.004115, 0.001372, 0.000457, 0.000152, 0.000051 and 0.000017 μM. In the test, the human TTK (7.5 ng) enzyme was reacted with the purified ATP (5 μM, Promega #V6930) and an MBP enzyme substrate (0.2 μg, Signalchem M42-51N) at 25° C. for 4 hours, and then the enzyme activity was identified using the in vitro ADP-Glo™ kinase assay (Promega #V6930). The enzyme activity reaction liquid, an ADP-Glo reaction liquid and an enzyme potency detection solution were reacted in a ratio of 2:2:1, and the degree of inhibition of enzyme activity was measured by luminescence. The degree of inhibition of enzyme activity according to the treatment concentrations of the respective compounds was calculated based on the luminescence degree of the enzyme activity of a solvent control group that was not treated with the compound, where the concentration of each compound to inhibit enzyme activity inhibition by 50% was determined as an IC50 (nM) value and obtained using Prism (Version 8.2, GraphPad) software.
as §3

SHP-77 = SHP-77 cancer cell proliferation inhibition (Cell Titer-Glo); assay type: cell-based; settings: Homo sapiens, SHP77, SHP-77 small cell lung cancer cell line, 72 hours
Procedure, shortened: as §4

LRRK2 (G2019S) = LRRK2 (G2019S) (Homo sapiens, UniProt Q5S007, G2019S); assay: LRRK2 G2019S enzyme inhibition, ADP-Glo kinase assay; assay type: biochemical; parameters: purchased SignalChem L10-12GG
Procedure, shortened: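 Purified human LRRK2 G2019S (16 ng) with 25 μM ATP and 0.2 μg substrate, 2 h at 25° C in 40 mM Tris-HCl pH 7.4, 20 mM MgCl2, 0.5 mg/ml BSA, 50 μM DTT; compound at 12 final concentrations from 50 μM downward. ADP-Glo luminescence versus solvent control gave IC50 (nM).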

[2] = target: T4, LRRK2, LRRK2 (G2019S), DYRK1, CLK1 and TTK kinases (Homo sapiens, UniProt P49759); assay: Enzyme IC50 by Kinase HotSpot service (Reaction Biology Corporation), values marked with *; assay type: biochemical; settings: CLK1, ATP 10 uM
T4 construct: CLK1 IC50 (marked with *); other: CLK1; Kinase HotSpot service (Reaction Biology), ATP 10 uM
Experimental: as §1, §2, §3

[3] = target: T5, LRRK2, LRRK2 (G2019S), DYRK1, CLK1 and TTK kinases (Homo sapiens, UniProt Q5S007); assay: as above; assay type: biochemical; settings: LRRK2, ATP 10 uM
T5 construct: LRRK2 IC50 (marked with *); other: LRRK2; Kinase HotSpot service (Reaction Biology), ATP 10 uM
Experimental: as §1, §2, §3

T1 sequence (P49759 129-484 limits assumed): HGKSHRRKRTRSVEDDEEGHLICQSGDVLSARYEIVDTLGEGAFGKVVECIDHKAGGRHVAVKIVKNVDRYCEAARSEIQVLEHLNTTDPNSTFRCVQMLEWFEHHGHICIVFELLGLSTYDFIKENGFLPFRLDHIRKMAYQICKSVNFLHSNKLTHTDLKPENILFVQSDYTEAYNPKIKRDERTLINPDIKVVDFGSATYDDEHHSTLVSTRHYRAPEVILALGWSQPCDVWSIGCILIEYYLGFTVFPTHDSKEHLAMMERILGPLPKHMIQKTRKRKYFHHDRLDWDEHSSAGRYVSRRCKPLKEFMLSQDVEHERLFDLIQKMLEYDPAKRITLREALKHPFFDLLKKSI
Sequence of LRRK2 (G2019S) (Q5S007 970-2527 G2019S limits assumed): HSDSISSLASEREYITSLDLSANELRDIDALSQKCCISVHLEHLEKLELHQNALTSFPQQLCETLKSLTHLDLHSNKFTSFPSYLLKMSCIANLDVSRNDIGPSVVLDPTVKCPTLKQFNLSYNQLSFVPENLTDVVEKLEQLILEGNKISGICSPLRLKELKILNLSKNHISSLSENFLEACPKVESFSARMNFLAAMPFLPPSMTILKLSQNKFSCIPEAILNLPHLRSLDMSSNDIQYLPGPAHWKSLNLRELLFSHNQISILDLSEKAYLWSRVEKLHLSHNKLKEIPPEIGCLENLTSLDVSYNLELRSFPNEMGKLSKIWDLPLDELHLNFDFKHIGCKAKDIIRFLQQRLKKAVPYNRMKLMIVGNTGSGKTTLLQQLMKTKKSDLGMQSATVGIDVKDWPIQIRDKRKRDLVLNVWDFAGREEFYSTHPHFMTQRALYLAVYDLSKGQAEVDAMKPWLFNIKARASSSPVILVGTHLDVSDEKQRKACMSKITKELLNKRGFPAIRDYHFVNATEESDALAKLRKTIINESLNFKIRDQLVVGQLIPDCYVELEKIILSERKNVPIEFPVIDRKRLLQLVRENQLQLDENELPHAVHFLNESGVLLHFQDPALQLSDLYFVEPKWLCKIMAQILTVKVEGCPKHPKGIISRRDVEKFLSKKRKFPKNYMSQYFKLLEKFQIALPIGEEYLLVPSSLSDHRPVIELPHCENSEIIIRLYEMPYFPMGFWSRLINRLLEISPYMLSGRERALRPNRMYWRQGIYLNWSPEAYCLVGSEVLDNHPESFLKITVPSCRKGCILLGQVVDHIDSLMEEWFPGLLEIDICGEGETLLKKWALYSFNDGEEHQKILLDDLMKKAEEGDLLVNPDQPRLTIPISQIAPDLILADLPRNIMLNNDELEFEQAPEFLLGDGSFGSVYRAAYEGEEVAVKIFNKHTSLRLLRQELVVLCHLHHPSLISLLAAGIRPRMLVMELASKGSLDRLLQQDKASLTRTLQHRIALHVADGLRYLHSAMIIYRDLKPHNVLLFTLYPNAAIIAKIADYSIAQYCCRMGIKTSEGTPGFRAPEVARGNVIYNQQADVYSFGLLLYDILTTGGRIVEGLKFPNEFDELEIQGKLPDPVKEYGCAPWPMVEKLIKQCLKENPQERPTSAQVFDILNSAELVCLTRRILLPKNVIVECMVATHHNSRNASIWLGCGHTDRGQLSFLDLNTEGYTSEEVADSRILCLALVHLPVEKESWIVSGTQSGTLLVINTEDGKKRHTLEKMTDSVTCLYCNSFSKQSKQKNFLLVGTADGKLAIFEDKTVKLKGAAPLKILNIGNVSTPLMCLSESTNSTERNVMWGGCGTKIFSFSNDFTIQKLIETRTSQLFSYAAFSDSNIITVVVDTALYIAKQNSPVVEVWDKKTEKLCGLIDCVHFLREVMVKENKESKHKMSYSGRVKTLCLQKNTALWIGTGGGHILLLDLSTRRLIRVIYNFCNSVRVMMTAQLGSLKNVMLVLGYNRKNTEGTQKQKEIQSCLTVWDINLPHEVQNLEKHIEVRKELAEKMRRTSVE
Sequence of LRRK2 (Q5S007 970-2527 limits assumed): as the sequence (Q5S007 970-2527 G2019S limits assumed) above, with S1050G counted along it
T4 sequence (P49759 whole entry, stated change not applied): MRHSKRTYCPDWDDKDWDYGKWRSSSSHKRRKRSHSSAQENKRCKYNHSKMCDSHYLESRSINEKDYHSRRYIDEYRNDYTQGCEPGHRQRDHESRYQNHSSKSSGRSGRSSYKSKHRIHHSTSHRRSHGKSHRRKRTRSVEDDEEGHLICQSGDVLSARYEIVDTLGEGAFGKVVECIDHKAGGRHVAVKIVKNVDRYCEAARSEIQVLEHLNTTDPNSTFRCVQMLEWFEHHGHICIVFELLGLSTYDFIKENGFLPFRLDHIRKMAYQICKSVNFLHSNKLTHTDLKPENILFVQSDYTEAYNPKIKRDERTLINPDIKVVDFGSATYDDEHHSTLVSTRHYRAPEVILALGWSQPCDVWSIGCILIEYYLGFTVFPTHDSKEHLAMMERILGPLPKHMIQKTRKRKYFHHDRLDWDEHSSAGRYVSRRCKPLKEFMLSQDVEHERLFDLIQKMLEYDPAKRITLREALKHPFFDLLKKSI
T5 sequence (Q5S007 whole entry G2019S): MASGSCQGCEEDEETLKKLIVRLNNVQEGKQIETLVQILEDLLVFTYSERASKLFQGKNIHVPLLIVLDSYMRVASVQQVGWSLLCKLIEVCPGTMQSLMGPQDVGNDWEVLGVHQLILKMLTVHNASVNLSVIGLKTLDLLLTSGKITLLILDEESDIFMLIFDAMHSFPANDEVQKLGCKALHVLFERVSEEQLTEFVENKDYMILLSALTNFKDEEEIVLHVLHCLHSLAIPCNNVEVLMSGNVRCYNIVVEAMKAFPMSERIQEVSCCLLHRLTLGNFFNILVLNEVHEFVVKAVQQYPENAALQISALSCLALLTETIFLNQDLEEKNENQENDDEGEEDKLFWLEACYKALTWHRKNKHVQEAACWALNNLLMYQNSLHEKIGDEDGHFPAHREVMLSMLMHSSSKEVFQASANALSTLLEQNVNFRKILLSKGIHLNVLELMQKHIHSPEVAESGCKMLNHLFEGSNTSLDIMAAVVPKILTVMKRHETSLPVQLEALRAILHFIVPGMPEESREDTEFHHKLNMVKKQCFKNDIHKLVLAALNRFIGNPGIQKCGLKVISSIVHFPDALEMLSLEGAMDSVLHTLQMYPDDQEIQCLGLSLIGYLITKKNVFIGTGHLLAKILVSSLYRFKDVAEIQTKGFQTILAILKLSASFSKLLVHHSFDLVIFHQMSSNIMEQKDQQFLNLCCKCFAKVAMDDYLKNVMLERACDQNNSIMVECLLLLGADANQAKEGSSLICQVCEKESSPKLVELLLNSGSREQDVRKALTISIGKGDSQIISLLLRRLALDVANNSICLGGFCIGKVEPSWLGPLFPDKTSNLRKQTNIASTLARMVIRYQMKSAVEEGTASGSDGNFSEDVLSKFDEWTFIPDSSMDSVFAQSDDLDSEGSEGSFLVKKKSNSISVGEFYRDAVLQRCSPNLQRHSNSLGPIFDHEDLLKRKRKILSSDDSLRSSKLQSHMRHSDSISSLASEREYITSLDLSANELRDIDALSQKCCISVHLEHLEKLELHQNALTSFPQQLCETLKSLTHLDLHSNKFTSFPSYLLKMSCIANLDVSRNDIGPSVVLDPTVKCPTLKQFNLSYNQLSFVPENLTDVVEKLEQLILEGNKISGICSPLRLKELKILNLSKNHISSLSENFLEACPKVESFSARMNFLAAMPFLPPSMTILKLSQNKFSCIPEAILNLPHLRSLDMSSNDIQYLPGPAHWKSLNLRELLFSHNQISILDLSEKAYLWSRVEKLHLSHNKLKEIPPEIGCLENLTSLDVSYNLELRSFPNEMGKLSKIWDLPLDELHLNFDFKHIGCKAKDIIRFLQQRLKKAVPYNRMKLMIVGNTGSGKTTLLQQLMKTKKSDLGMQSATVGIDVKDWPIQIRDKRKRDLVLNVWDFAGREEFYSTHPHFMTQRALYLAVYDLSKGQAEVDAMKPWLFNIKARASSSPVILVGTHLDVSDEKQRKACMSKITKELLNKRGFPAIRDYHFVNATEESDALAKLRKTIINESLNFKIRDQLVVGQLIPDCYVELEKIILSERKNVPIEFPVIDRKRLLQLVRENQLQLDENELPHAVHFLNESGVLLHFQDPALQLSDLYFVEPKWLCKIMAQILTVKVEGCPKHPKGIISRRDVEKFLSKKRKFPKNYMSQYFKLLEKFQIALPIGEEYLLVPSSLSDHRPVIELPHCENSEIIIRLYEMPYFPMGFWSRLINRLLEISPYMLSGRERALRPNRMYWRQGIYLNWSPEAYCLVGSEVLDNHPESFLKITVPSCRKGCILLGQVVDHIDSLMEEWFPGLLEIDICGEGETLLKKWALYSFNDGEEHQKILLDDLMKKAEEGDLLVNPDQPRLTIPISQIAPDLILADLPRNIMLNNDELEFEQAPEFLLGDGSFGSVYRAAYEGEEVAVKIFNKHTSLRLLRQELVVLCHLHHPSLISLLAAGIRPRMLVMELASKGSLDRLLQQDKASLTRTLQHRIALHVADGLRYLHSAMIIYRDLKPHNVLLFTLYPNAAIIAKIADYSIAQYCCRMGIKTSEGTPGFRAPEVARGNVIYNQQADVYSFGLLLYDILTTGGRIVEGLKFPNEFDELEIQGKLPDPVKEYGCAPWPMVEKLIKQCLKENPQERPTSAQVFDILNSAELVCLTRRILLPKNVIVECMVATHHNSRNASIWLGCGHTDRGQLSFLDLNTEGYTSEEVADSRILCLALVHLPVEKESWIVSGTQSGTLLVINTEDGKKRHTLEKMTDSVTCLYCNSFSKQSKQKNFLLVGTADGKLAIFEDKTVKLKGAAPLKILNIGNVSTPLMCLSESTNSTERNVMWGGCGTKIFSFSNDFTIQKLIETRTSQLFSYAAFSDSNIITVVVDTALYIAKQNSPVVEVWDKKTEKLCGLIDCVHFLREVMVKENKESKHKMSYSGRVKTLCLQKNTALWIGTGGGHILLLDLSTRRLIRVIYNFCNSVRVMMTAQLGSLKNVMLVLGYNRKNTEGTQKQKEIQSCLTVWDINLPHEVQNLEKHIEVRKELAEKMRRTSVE

## COc1cc(P2(=O)CCN(C3COC3)CC2)ccc1Nc1cc(C2CC2)c2c(C(F)(F)F)c[nH]c2n1 [Example 47, 4-(4-((4-cyclopropyl-3-(trifluoromethyl)-1H-pyrrolo[2,3-b]pyridin-6-yl)amino)-3-methoxyphenyl)-1-(oxetan-3-yl)-1,4-azaphosphinane 4-oxide]
Human GST-CLK1 (129-end)
  IC50: < 100 nM
[1]
  IC50: < 100 nM
MDA-MB-231 cell line
  GI50: 301 to 1000 nM
Human DYRK1A and Tau
  inhibition at 0.25 µM: 3.7%
  inhibition at 0.5 µM: 15%
  inhibition at 1 µM: 22.4%
LRRK2
  IC50: 101 to 300 nM

## O=C(c1ccc(Nc2cc(C3CC3)c3c(C(F)(F)F)c[nH]c3n2)c2c1OCCO2)N1CCN(C2COC2)CC1 [Example 101, (8-((4-cyclopropyl-3-(trifluoromethyl)-1H-pyrrolo[2,3-b]pyridin-6-yl)amino)-2,3-dihydrobenzo[b] [1,4]dioxin-5-yl)(4-(oxetan-3-yl)piperazin-1-yl)methanone]
Human GST-CLK1 (129-end)
  IC50: 301 to 1000 nM
[1]
  IC50: < 100 nM
Human DYRK1A and Tau
  inhibition at 0.25 µM: 9.9%
  inhibition at 0.5 µM: 11.2%
  inhibition at 1 µM: 20.7%
TTK
  IC50: < 100 nM

## COCCNc1cc(Nc2ccc(S(=O)(=O)N3CCC(N4CCOCC4)CC3)cc2OC)nc2[nH]cc(C#N)c12 [Example 140, 6-((2-methoxy-4-((4-morpholinopiperidin-1-yl)sulfonyl)phenyl)amino)-4-((2-methoxyethyl)amino)-1H-pyrrolo[2,3-b]pyridine-3-carbonitrile]
Human GST-CLK1 (129-end)
  IC50: < 100 nM
[1]
  IC50: < 100 nM
MDA-MB-231 cell line
  GI50: < 50 nM
SHP-77
  GI50: 51 to 100 nM
LRRK2
  IC50: < 100 nM
LRRK2 (G2019S)
  IC50: < 100 nM

## COc1cc(S(C)(=O)=O)ccc1Nc1cc(C2CC2)c2c(C(F)(F)F)c[nH]c2n1 [Example 224, 4-cyclopropyl-N-(2-methoxy-4-(methylsulfonyl)phenyl)-3-(trifluoromethyl)-1H-pyrrolo[2,3-b]pyridin-6-amine]
Human GST-CLK1 (129-end)
  IC50: 301 to 1000 nM
[1]
  IC50: < 100 nM
LRRK2
  IC50: 301 to 1000 nM
LRRK2 (G2019S)
  IC50: 301 to 1000 nM

## COc1cc(S(=O)(=O)N2CCC(N3C[C@H]4C[C@@H]3CO4)CC2)ccc1Nc1cc(C2CC2)c2c(C(F)(F)F)c[nH]c2n1 [Example 239, N-(4-((4-((1R,4R)-2-oxa-5-azabicyclo [2.2.1]heptan-5-yl)piperidin-1-yl)sulfonyl)-2-methoxyphenyl)-4-cyclopropyl-3-(trifluoromethyl)-1H-pyrrolo[2,3-b]pyridin-6-amine]
[2]
  IC50: < 100 nM
[1]
  IC50: < 100 nM
[3]
  IC50: < 100 nM
MDA-MB-231 cell line
  GI50: 301 to 1000 nM
SHP-77
  GI50: 301 to 1000 nM
Human DYRK1A and Tau
  inhibition at 0.25 µM: 22%
  inhibition at 0.5 µM: 50.9%
  inhibition at 1 µM: 71.2%
LRRK2 (G2019S)
  IC50: 301 to 1000 nM

## COc1cc(S(=O)(=O)N2CCC(N3C[C@@H]4C[C@H]3CO4)CC2)ccc1Nc1cc(C2CC2)c2c(C(F)(F)F)c[nH]c2n1 [Example 240, N-(4-((4-((1S,4S)-2-oxa-5-azabicyclo[2.2.1]heptan-5-yl)piperidin-1-yl)sulfonyl)-2-methoxyphenyl)-4-cyclopropyl-3-(trifluoromethyl)-1H-pyrrolo[2,3-b]pyridin-6-amine]
[2]
  IC50: < 100 nM
[1]
  IC50: < 100 nM
[3]
  IC50: < 100 nM
MDA-MB-231 cell line
  GI50: 301 to 1000 nM
SHP-77
  GI50: 301 to 1000 nM
Human DYRK1A and Tau
  inhibition at 0.25 µM: 8.9%
  inhibition at 0.5 µM: 16.5%
  inhibition at 1 µM: 36.3%
LRRK2 (G2019S)
  IC50: 301 to 1000 nM

— patent US12240844B2 (Voronoi, Inc., priority 2019, dated 2025)
